Assay results reported in patent US10485237B2, “Use of a chemical agent for thinning of stone fruit” (FINE AGROCHEMICALS LIMITED, priority 2014, dated 2019).
“Also recorded” adds a separate entry of the source.

Experiments:
UFO-4 nectarines [1] = assay: Dose rate trial in Spain, fruit numbers; format: in vivo, nectarine
Procedure: (§1) Two trials were carried out in Spain: a timing trial and a dose rate trial. The dose rate trial was done at UFO-4 nectarines. The use of GA7 (>95% pure with respect to the presence of GA4) was applied in amounts between 0.25 and 2 L/hL at 2 months of full bloom on UFO-4 peach.

peach [2] = assay: Ex 6: 2011 peach return bloom (blossom counts proximal/distal); format: in vivo
Excerpt: Shoots were divided in half and blossoms were counted according to proximal, the half closest to the tree trunk, and distal, the half closest to the shoot tip.

UFO-4 nectarines [3] = assay: Dose rate trial in Spain, fruit numbers; format: in vivo, nectarine; details: 10 g/hL (Falgro tablets), comparative experiment B
apricot variety = details: cited from earlier work
peach [4] = assay: Initial evaluation trial in Piemonte, GA7 on peach fruitlets; format: in vivo; details: 750 ml/hl on 10 mm fruitlets of peach
Procedure: An initial test was carried out as an evaluation trial in Piemonte with GA7 applied at 750 ml/hl on 10 mm fruitlets of peach.

peach and nectarine [5] = assay: 2010-11 thinning trials in Spain (Catalonia, Masso); format: in vivo
Procedure: (§2) Trials were carried out in Italy and Spain with GA7. The trees were treated with GA7 about 3 months after full bloom in order to reduce flowering the year thereafter.
In Spain, trials were carried out on peach and nectarine with GA7 (>95% pure relative to GA4). The first assessments were done at harvest in 2010. […] The main assessments took place in spring 2011 (i.e. the next year): The reduction of the number of buds per cm was in the order of 35% in the trials carried out in the Catalonia region. In the trials in Masso also, clear reductions of 41-78% were found depending on the variety and the dose. In the meantime, fruit size was increased. Time necessary for hand thinning was recorded in the trials done in Catalonia. The treatment with GA7 allowed a reduction of about 30% of the hand thinning time.

peach and nectarine [6] = assay: 2010-11 thinning trial in Italy; format: in vivo; details: 1 L/100 L ca. 3 months after full bloom, GA7 95% pure relative to GA4
Procedure: as §2

nectarine = assay: 2011-12 trial in nectarine, return bloom (number of flowers on distal and basal part of branches); format: in vivo
Procedure: as §2
(§3) In 2011, new trials were started: 4 trials in peach and nectarines.

peach and nectarines = assay: Other three 2011-12 trials, number of flowers per branch; format: in vivo; details: depending on the trial and the rate
Procedure: as §2, §3

Merryl O Henry peach = assay: Timing trial in Spain, fruit numbers; format: in vivo
Procedure: as §1
Further trial was executed on Merryl O Henry peach. The application of GA7 was varied over time, and in one programme GA7 was applied in two doses, 2 weeks apart.

peach [7] = assay: Ex 7: 2012 peach return bloom; format: in vivo; details: applied at 50 ppm
Excerpt: Once again, shoots were divided in half and blossoms were counted according to proximal and distal halves.

peach [8] = assay: Ex 8: 2011 peach trial (flowers per branch, fruit size and quality); format: in vivo
Excerpt: This study consisted of 3 treatments applied on April 25, May 10, and May 26, 2011 (which is 45, 60 and 75 days after full bloom): • 1. Untreated check • 2. FAL 900 at a rate of 25 ppm ai (C) which is 2.5 g per 100 L, which is 0.25 L formulation per 100 L. • 3. FAL 900 at a rate of 50 ppm ai (C) • 4. FAL 900 at a rate of 10 ppm ai (3 treatments with 2 weeks interval) 2011-12 Observations: Evaluations consisted of assessing for firmness, soluble solids, and titratable acidity, and weight of 20 fruit per plot on end of July early August. Shoot measurements were recorded on end of February in […] from ten shoots per plot. The number of flowers per branch were counted from two halves (proximal and distal) of ten branches per plot on end of February 2012.

stone fruit [9] = assay: Summary of the thinning tests with GA7; format: in vivo; details: compared with fully hand-thinned fruit
stone fruit [10] = assay: Reliability of fruit thinning by spraying on fruit trees; format: in vivo; details: sprayed on fruit trees
Excerpt: GA7 may be used in admixture with GA4, but the relative amounts of GA7 to GA4 are 70% GA7 or more and 30 GA4 or less. Preferably, the GA7 contains less than 10 wt % of GA4 relative to the GA7, more preferably less than 5 wt %. […] In some years, some thinning is observed, but this effect is not consistently achieved.

[11] = 10 g/hL (Falgro tablets), comparative experiment B
[12] = 0.25 L/hL at 2 months of full bloom
[13] = 0.5 L/hL at 2 months of full bloom
[14] = 1.0 L/hL at 2 months of full bloom
[15] = 2.0 L/hL at 2 months of full bloom
[16] = 0.5 L/hL, sprays 1.5 and 2 month after full bloom (two doses)
[17] = 1 L/hL, spray 1.5 month after full bloom
[18] = 1 L/hL, spray 2 month after full bloom
[19] = 1 L/hL, spray 2.5 month after full bloom

C=C1C[C@]23C[C@@]1(O)CC[C@H]2[C@@]12C=C[C@H](O)[C@@](C)(C(=O)O1)[C@H]2[C@@H]3C(=O)O [GA3, gibberellic acid]
Number of fruit/m of short fruiting shoots (<20 cm) (UFO-4 nectarines [1]; [11]): 29 | Total number of fruit per tree (UFO-4 nectarines [1]; [11]): 675 | blossom counts in comparison to the UTC (peach [2]; both rates, throughout the trial): consistently lower blossom counts | rate response of blossom counts (peach [2]; two evaluation dates): a rate response was observed for the first evaluation date, but not the second | Number of fruit/m of long fruiting shoots (>20 cm) (UFO-4 nectarines [3]): 18 | Number of fruit/m of total fruiting shoots (UFO-4 nectarines [3]): 19

C=C1C[C@]23C[C@H]1CC[C@H]2[C@@]12CC[C@H](O)[C@@](C)(C(=O)O1)[C@H]2[C@@H]3C(=O)O [GA4, reference compound]
effectiveness compared among GA3, GA4 and GA7 (apricot variety; applied in May or June, source and purity unclear): more effective than either GA3 or GA7

C=C1C[C@]23C[C@H]1CC[C@H]2[C@@]12C=C[C@H](O)[C@@](C)(C(=O)O1)[C@H]2[C@@H]3C(=O)O [GA7, gibberellin 7]
control of flowering in the following year (peach [4]): high control of flowering | budding (peach [4]; especially on young lateral branches): better budding | fruit size (peach and nectarine [5]; Masso trials, 2011): increased | impact of the treatments on yield and fruit quality (peach and nectarine [5]; assessments at harvest in 2010, GA7 >95% pure relative to GA4): did not show any impact | reductions (trials in Masso) (peach and nectarine [5]; spring 2011, Masso, depending on the variety and the dose): 41-78% | reduction of the number of buds per cm (peach and nectarine [5]; spring 2011, trials in the Catalonia region): ~35% | reduction of the hand thinning time (peach and nectarine [5]; trials done in Catalonia): about 30% | reduction in the number of fruit/meter of branch (peach and nectarine [6]; variety Laura): 1.5% | reduction in the number of fruit/meter of branch (peach and nectarine [6]; variety Sinphony): 32.9% | No of flowers (nectarine; basal part, 0.5 L/hL): 8.5 | No of flowers, change vs untreated (nectarine; basal part, 0.5 L/hL): −37% | No of flowers (nectarine; basal part, 1 L/hL): 5.4 | No of flowers, change vs untreated (nectarine; basal part, 1 L/hL): −60% | return bloom (nectarine; distal and proximal part of the branches, rate effect between 0.5 and 1 L/100 L): return bloom is reduced | No of flowers (nectarine; distal part, 0.5 L/hL): 4.7 | No of flowers, change vs untreated (nectarine; distal part, 0.5 L/hL): −58% | No of flowers (nectarine; distal part, 1 L/hL): 3.7 | No of flowers, change vs untreated (nectarine; distal part, 1 L/hL): −67% | reduction in the number of flowers per branch in comparison to the untreated (peach and nectarines): −17 to −50% | Number of fruit/m of long fruiting shoots (>20 cm) (UFO-4 nectarines [1]; [12]): 20 | Number of fruit/m of short fruiting shoots (<20 cm) (UFO-4 nectarines [1]; [12]): 27 | Number of fruit/m of total fruiting shoots (UFO-4 nectarines [1]; [12]): 21 | Total number of fruit per tree (UFO-4 nectarines [1]; [12]): 704 | Number of fruit/m of long fruiting shoots (>20 cm) (UFO-4 nectarines [1]; [13]): 23 | Number of fruit/m of short fruiting shoots (<20 cm) (UFO-4 nectarines [1]; [13]): 28 | Number of fruit/m of total fruiting shoots (UFO-4 nectarines [1]; [13]): 24 | Total number of fruit per tree (UFO-4 nectarines [1]; [13]): 729 | Number of fruit/m of long fruiting shoots (>20 cm) (UFO-4 nectarines [1]; [14]): 17 | Number of fruit/m of short fruiting shoots (<20 cm) (UFO-4 nectarines [1]; [14]): 12 | Number of fruit/m of total fruiting shoots (UFO-4 nectarines [1]; [14]): 16 | Total number of fruit per tree (UFO-4 nectarines [1]; [14]): 491 | Number of fruit/m of long fruiting shoots (>20 cm) (UFO-4 nectarines [1]; [15]): 13 | Number of fruit/m of short fruiting shoots (<20 cm) (UFO-4 nectarines [1]; [15]): 7 | Number of fruit/m of total fruiting shoots (UFO-4 nectarines [1]; [15]): 12 | Total number of fruit per tree (UFO-4 nectarines [1]; [15]): 375 | thinning effectiveness of GA7 versus GA3 (UFO-4 nectarines [1]; at comparable amounts of GA7 and GA3 (Falgro tablets)): more effective | Number of fruit/m of long fruiting shoots (>20 cm) (Merryl O Henry peach; [16]): 4.7 | Number of fruit/m of short fruiting shoots (<20 cm) (Merryl O Henry peach; [16]): 5.8 | Number of fruit/m of total fruiting shoots (Merryl O Henry peach; [16]): 5.6 | Total number of fruit per tree (Merryl O Henry peach; [16]): 115 | Number of fruit/m of long fruiting shoots (>20 cm) (Merryl O Henry peach; [17]): 8.6 | Number of fruit/m of short fruiting shoots (<20 cm) (Merryl O Henry peach; [17]): 5.9 | Number of fruit/m of total fruiting shoots (Merryl O Henry peach; [17]): 6.5 | Total number of fruit per tree (Merryl O Henry peach; [17]): 149 | Number of fruit/m of long fruiting shoots (>20 cm) (Merryl O Henry peach; [18]): 5.1 | Number of fruit/m of short fruiting shoots (<20 cm) (Merryl O Henry peach; [18]): 3.6 | Number of fruit/m of total fruiting shoots (Merryl O Henry peach; [18]): 3.8 | Total number of fruit per tree (Merryl O Henry peach; [18]): 77 | Number of fruit/m of long fruiting shoots (>20 cm) (Merryl O Henry peach; [19]): 3.7 | Number of fruit/m of short fruiting shoots (<20 cm) (Merryl O Henry peach; [19]): 2.8 | Number of fruit/m of total fruiting shoots (Merryl O Henry peach; [19]): 3.0 | Total number of fruit per tree (Merryl O Henry peach; [19]): 69 | effectiveness for thinning stone fruit (Merryl O Henry peach; applied at varying times): effective for thinning stone fruit | 2012 return bloom, bloom counts totaled across the entire fruiting branch (proximal+distal) (peach [7]): significant reduction | number of flowers on the lower or proximal half of the branch (A) (peach [8]; 50 ppm ai (C)): significantly lowest | size of peaches collected (peach [8]; 50 ppm ai, tree also producing the largest peaches in 2011): largest peaches | quality of the peaches (peach [8]; firmness, soluble solids, titratable acidity, weight): not influenced | quality of the resultant fruit (stone fruit [9]): same quality as fully hand-thinned fruit | reliability of fruit thinning results (stone fruit [10]): reliable thinning results | effect on flowering vs. untreated (apricot variety; 6 experiments): only in 1 out of 6 experiments a non significant reducing effect on flowering; also recorded: in 4 experiments out of 6 shows the opposite effect of increased flowering
